Source: ChEMBL document CHEMBL1201862, “PubChem BioAssay data set” (2004)
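Five compound concentrations were applied to cells in 96-well plates for 48 hours; endpoints were derived by simple linear interpolation of the resulting dose-response curve. Abbreviation: GI50, concentration required for 50% inhibition of growth.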 Calls of active or inactive are those of the source. Rule as the data show it: active = GI50 up to about 1.1 µM and inactive = higher.

Tests used:
Assay in all cases: inhibition of tumour cell growth, NCI panel, 48 h
OVCAR-3 = system: OVCAR-3
UO-31 = system: UO-31
K562 = system: K562
EKVX = system: EKVX
786-0 = system: 786-0
SF-539 = system: SF-539
NCI-H23 = system: NCI-H23
DMS-114 = system: DMS-114
CCRF-CEM = system: CCRF-CEM
OVCAR-4 = system: OVCAR-4
A549 = system: A549
SN12C = system: SN12C
UACC-257 = system: UACC-257
OVCAR-5 = system: OVCAR-5
SR = system: SR
HCT-116 = system: HCT-116
NCI/ADR-RES = system: NCI/ADR-RES
MDA-N = system: MDA-N
BT-549 = system: BT-549
MDA-MB-435 = system: MDA-MB-435

SMILES	GI50 (OVCAR-3)	GI50 (UO-31)	GI50 (K562)	GI50 (EKVX)	GI50 (786-0)	GI50 (SF-539)	GI50 (NCI-H23)	GI50 (DMS-114)	GI50 (CCRF-CEM)	GI50 (OVCAR-4)	GI50 (A549)	GI50 (SN12C)	GI50 (UACC-257)	GI50 (OVCAR-5)	GI50 (SR)	GI50 (HCT-116)	GI50 (NCI/ADR-RES)	GI50 (MDA-N)	GI50 (BT-549)	GI50 (MDA-MB-435)
OCCSCC/C(=N\N=C(/CCSCCO)c1ccccc1)c1ccccc1	> 100 µM (inactive)	91.4 µM (inactive)	29.9 µM (inactive)	> 100 µM (inactive)	46.2 µM (inactive)	> 100 µM (inactive)	> 100 µM (inactive)	> 100 µM (inactive)	44.9 µM (inactive)	61.4 µM (inactive)	> 100 µM (inactive)	> 100 µM (inactive)	> 100 µM (inactive)	> 100 µM (inactive)	–	–	–	–	–	–
Cc1c2c(ccc3ccccc32)c[n+]2ccccc12	2.27 µM (inactive)	20.9 µM (inactive)	11.6 µM (inactive)	–	10.1 µM (inactive)	13.9 µM (inactive)	4.15 µM (inactive)	3.24 µM (inactive)	11 µM (inactive)	12 µM (inactive)	1.44 µM (inactive)	–	10.2 µM (inactive)	55.7 µM (inactive)	4.16 µM (inactive)	21.8 µM (inactive)	–	–	–	–
COc1cc2ccnc([C@@H](OC(=O)c3ccccc3)c3ccc(OC)c(OC)c3OC)c2cc1OC	27.8 µM (inactive)	18.9 µM (inactive)	26.7 µM (inactive)	> 100 µM (inactive)	35.6 µM (inactive)	47.5 µM (inactive)	40.6 µM (inactive)	33.1 µM (inactive)	53.2 µM (inactive)	31 µM (inactive)	47.1 µM (inactive)	51.6 µM (inactive)	> 100 µM (inactive)	23.8 µM (inactive)	–	33.9 µM (inactive)	–	–	–	–
CCCCCCCCCCCC(=O)CC(=O)c1c(O)cccc1O	19.8 µM (inactive)	14.5 µM (inactive)	26.9 µM (inactive)	17.8 µM (inactive)	23.3 µM (inactive)	18.5 µM (inactive)	19.6 µM (inactive)	18.8 µM (inactive)	> 100 µM (inactive)	17.3 µM (inactive)	17.9 µM (inactive)	18.7 µM (inactive)	17.5 µM (inactive)	15.5 µM (inactive)	19.4 µM (inactive)	16.6 µM (inactive)	–	–	–	–
COc1cc(C(C)c2cc3c(cc2OCCN)OCO3)cc(OC)c1OC (configuration not stated)	> 100 µM (inactive)	50.8 µM (inactive)	> 100 µM (inactive)	36.2 µM (inactive)	> 100 µM (inactive)	> 100 µM (inactive)	31.8 µM (inactive)	52 µM (inactive)	35.2 µM (inactive)	> 100 µM (inactive)	> 100 µM (inactive)	> 100 µM (inactive)	6.7 µM (inactive)	46.6 µM (inactive)	40.4 µM (inactive)	> 100 µM (inactive)	–	–	–	–
CCCCCCCCCC[C@@H](O)[C@@H]1CC[C@H]([C@H]2CC[C@@H]([C@@H](O)CCCCCCCCCC[C@H]3CC(CC(C)=O)C(=O)O3)O2)O1 (some centres not stated)	0.171 µM (active)	1.08 µM (active)	< 0.01 µM (active)	7.16 µM (inactive)	11.4 µM (inactive)	10.8 µM (inactive)	< 0.01 µM (active)	< 0.01 µM (active)	3.07 µM (inactive)	< 0.01 µM (active)	8.77 µM (inactive)	10.3 µM (inactive)	0.955 µM (active)	18 µM (inactive)	–	1.18 µM (inactive)	–	–	–	–
COC(=O)/C(C#N)=C1\CCC(O)N1 (configuration not stated)	> 100 µM (inactive)	> 100 µM (inactive)	> 100 µM (inactive)	> 100 µM (inactive)	> 100 µM (inactive)	> 100 µM (inactive)	> 100 µM (inactive)	> 100 µM (inactive)	> 100 µM (inactive)	> 100 µM (inactive)	> 100 µM (inactive)	> 100 µM (inactive)	> 100 µM (inactive)	> 100 µM (inactive)	> 100 µM (inactive)	> 100 µM (inactive)	–	–	–	–
CN(CCc1ccccn1)c1nc(=[N+](C)C)ss1	66.8 µM (inactive)	> 100 µM (inactive)	> 100 µM (inactive)	> 100 µM (inactive)	> 100 µM (inactive)	> 100 µM (inactive)	> 100 µM (inactive)	> 100 µM (inactive)	81.3 µM (inactive)	> 100 µM (inactive)	35.3 µM (inactive)	> 100 µM (inactive)	> 100 µM (inactive)	> 100 µM (inactive)	–	–	–	–	–	–
Cc1nnc2n1N=C(CC(=O)c1ccc(O)cc1O)CN2N	–	> 100 µM (inactive)	> 100 µM (inactive)	> 100 µM (inactive)	> 100 µM (inactive)	> 100 µM (inactive)	> 100 µM (inactive)	19.6 µM (inactive)	> 100 µM (inactive)	> 100 µM (inactive)	> 100 µM (inactive)	> 100 µM (inactive)	> 100 µM (inactive)	> 100 µM (inactive)	–	55.7 µM (inactive)	–	–	–	–
Nc1ccc2n[se]nc2c1	–	> 100 µM (inactive)	> 100 µM (inactive)	> 100 µM (inactive)	> 100 µM (inactive)	> 100 µM (inactive)	> 100 µM (inactive)	> 100 µM (inactive)	> 100 µM (inactive)	> 100 µM (inactive)	> 100 µM (inactive)	> 100 µM (inactive)	> 100 µM (inactive)	> 100 µM (inactive)	> 100 µM (inactive)	> 100 µM (inactive)	–	–	–	–
CN(C)CCC[N+]1=Nc2cccc3cccc(c23)N1	> 100 µM (inactive)	96.4 µM (inactive)	31.8 µM (inactive)	> 100 µM (inactive)	49.8 µM (inactive)	99.5 µM (inactive)	> 100 µM (inactive)	60.3 µM (inactive)	29.9 µM (inactive)	47.1 µM (inactive)	> 100 µM (inactive)	85.1 µM (inactive)	48.5 µM (inactive)	> 100 µM (inactive)	16.9 µM (inactive)	44.6 µM (inactive)	–	–	–	–
C/C=C(/C)C(=O)O[C@H]1[C@H](O)CC(c2ccc3c(c2O)C(=O)C2=C(O)C4(OC)C(=O)C(C(N)=O)=C(O)[C@H](CC(=O)c5ccccc5O)C4CC2[C@@]3(C)OC)O[C@@H]1C (some centres not stated)	0.00454 µM (active)	0.041 µM (active)	0.01 µM (active)	0.0396 µM (active)	0.00479 µM (active)	0.00611 µM (active)	0.00711 µM (active)	0.01 µM (active)	0.0281 µM (active)	0.0849 µM (active)	0.00311 µM (active)	0.00297 µM (active)	0.0165 µM (active)	0.0546 µM (active)	0.00426 µM (active)	0.00121 µM (active)	8.43 µM (inactive)	0.0272 µM (active)	0.0187 µM (active)	0.0187 µM (active)
CC(SC(=S)Nc1cccc(F)c1)C(=O)O (configuration not stated)	27.4 µM (inactive)	24.9 µM (inactive)	15.6 µM (inactive)	51.2 µM (inactive)	34.4 µM (inactive)	18.3 µM (inactive)	21 µM (inactive)	15.1 µM (inactive)	21.2 µM (inactive)	> 100 µM (inactive)	31.7 µM (inactive)	50.7 µM (inactive)	16.6 µM (inactive)	46.5 µM (inactive)	13.8 µM (inactive)	19.2 µM (inactive)	–	–	–	–
C=CCN1C(=O)C(=O)N(CC=C)C(=O)C1=O	> 100 µM (inactive)	> 100 µM (inactive)	> 100 µM (inactive)	> 100 µM (inactive)	> 100 µM (inactive)	> 100 µM (inactive)	> 100 µM (inactive)	> 100 µM (inactive)	> 100 µM (inactive)	> 100 µM (inactive)	> 100 µM (inactive)	> 100 µM (inactive)	> 100 µM (inactive)	> 100 µM (inactive)	> 100 µM (inactive)	> 100 µM (inactive)	–	–	–	–
Cc1c(C(=O)C/C(=N\O)C(=O)Nc2cc(Cl)c(Cl)cc2Cl)[n+]([O-])c2ccccc2[n+]1[O-]	2.37 µM (inactive)	24.3 µM (inactive)	25.9 µM (inactive)	22.9 µM (inactive)	22.2 µM (inactive)	14.3 µM (inactive)	20.9 µM (inactive)	4.37 µM (inactive)	32.7 µM (inactive)	9.53 µM (inactive)	25.6 µM (inactive)	4.83 µM (inactive)	7.85 µM (inactive)	24.4 µM (inactive)	24.2 µM (inactive)	4.85 µM (inactive)	–	–	–	–
CCNC(=O)/C(=C/c1ccc(OC)cc1)c1cc(OC)c(OC)c(OC)c1	3.78 µM (inactive)	20.1 µM (inactive)	3.19 µM (inactive)	64.1 µM (inactive)	8.85 µM (inactive)	7.87 µM (inactive)	13 µM (inactive)	11.7 µM (inactive)	6.79 µM (inactive)	68.2 µM (inactive)	7.62 µM (inactive)	20.7 µM (inactive)	13.5 µM (inactive)	63.8 µM (inactive)	4.17 µM (inactive)	6.18 µM (inactive)	3 µM (inactive)	1.58 µM (inactive)	14.4 µM (inactive)	2.09 µM (inactive)
N=c1c2ccccc2sc2nc3ccccc3n12	–	> 100 µM (inactive)	> 100 µM (inactive)	86.1 µM (inactive)	97.5 µM (inactive)	> 100 µM (inactive)	> 100 µM (inactive)	> 100 µM (inactive)	> 100 µM (inactive)	33.9 µM (inactive)	> 100 µM (inactive)	> 100 µM (inactive)	> 100 µM (inactive)	> 100 µM (inactive)	> 100 µM (inactive)	–	–	–	–	–
